Columns and labels:
[1] = Stock solution stability (bioanalytical stock solutions); assay type: physicochemical; conditions: polypropylene container
[2] = Nonclinical PK/PD study of low-dose dasatinib in NS and NSML mice for hypertrophic cardiomyopathy; conditions: mouse, in vivo, doses 0.05 mg/kg to 0.5 mg/kg, based on exposure-response relationship, read-out: suggested potential target AUC for cardiac rescue
Protocol: A nonclinical study in mice was conducted to determine the PK and PD properties of a low-dose treatment of dasatinib in NS and NSML mice for the treatment of Hypertrophic cardiomyopathy (HCM). The goal was to establish in the same mouse model concurrent PK data and to correlate that with the endpoints of HCM using qPCR and immunoblotting. PK properties obtained from these mice were determined by Kana Mizuno and Alexander A. Vinks at Cincinnati Children's Hospital Medical Center. Dasatinib PK profiles and exposures (expressed as area under the concentration time curve; AUC) at doses ranging from 0.05 mg/kg to 0.5 mg/kg were estimated in NS and NSML mice. Based on the exposure-response relationship, potential target exposures to protect cardiac function were identified.

Stock Stability ([1]; storage temperature 22° C.) [h]	Stock Stability ([1]; storage temperature −20° C.) [h]	Compound	AUC [2] [ng·h/mL]
25	1010	[2H]C1([2H])N(CCO)C([2H])([2H])C([2H])([2H])N(c2cc(Nc3ncc(C(=O)Nc4c(C)cccc4Cl)s3)nc(C)n2)C1([2H])[2H] [Dasatinib-D8]	–
25	1010	Cc1nc(Nc2ncc(C(=O)Nc3c(C)cccc3Cl)s2)cc(N2CCN(CCO)CC2)n1 [Dasatinib]	12 to 24

Source: patent US20210308057A1, “PEDIATRIC FORMULATION OF TYROSINE KINASE INHIBITORS” (IGIA Pharmaceuticals, Inc., priority 2020, published 2021)
